In paper PMC12892976, “Alkylation-based optimization of antifungal FPPS inhibitors yields a potent, broad-spectrum lipophilic zoledronate derivative” (mBio, 2025):
≈ marks a conversion by molar mass, not a printed value. Like-named read-outs stand apart in the source and are kept apart here.

How the values were obtained:
Cryptococcus neoformans [1] = test: MIC/MFC broth microdilution (CLSI); settings: Cryptococcus neoformans;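 note: susceptibility testing followed the CLSI M27-Ed4 broth microdilution document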
Protocol: (§1) Antifungal susceptibility was determined by broth microdilution according to the CLSI guidelines described in M27-Ed4 ([16]). […] MFC was determined by back-plating drug-treated cultures from MIC broths onto SDA plates. The MFC was defined as the lowest concentration from which no colonies could be cultured.

HEK-293T cells = test: MTT reduction cytotoxicity assay; assay type: cell-based; settings: Homo sapiens, HEK-293T, 72 h, MTT, 72 h
Aspergillus flavus [2] = test: checkerboard drug interaction (FICI, MICc);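 note: simplified diagonal checkerboard screen pairing azole antifungals with FPPS inhibitors, FICI calculated under the Loewe additivity model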; assay type: cell-based; design: INH MICc (KET:INH) / INH MICc (FLC:INH): unit not given beside the values; settings: A. flavus
Aspergillus flavus [3] = test: MIC/MFC broth microdilution (CLSI); settings: ATCC204304
Protocol: as §1

[4] = system: Cryptococcus deuterogattii; test: MIC/MFC broth microdilution (CLSI); settings: Cryptococcus deuterogattii;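 note: broth microdilution per CLSI M27-Ed4. MFC is the lowest concentration yielding no colonies when MIC broths are subcultured onto SDA plates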
Protocol: as §1

Candida glabrata [5] = test: checkerboard drug interaction (FICI, MICc);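 for all read-outs here: simplified diagonal checkerboard screen pairing antifungals with FPPS inhibitors, FICI calculated under the Loewe additivity model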; assay type: cell-based; settings: C. glabrata; for INH FD (MIC-MICc fold decrease): fold decrease of inhibitor MIC
Protocol: (§2) Drug interactions between antifungals and FPPS inhibitors were investigated using a simplified checkerboard diagonal screening method ([45]). […] FICIs were determined according to the Loewe additivity model ([17]).

[6] = system: Cryptococcus deuterogattii; test: checkerboard drug interaction (FICI, MICc);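 for all read-outs here: simplified diagonal checkerboard screen pairing antifungal drugs with FPPS inhibitors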; assay type: cell-based; settings: C. deuterogattii; for INH FD (MIC-MICc fold decrease): fold decrease of inhibitor MIC
Protocol: as §2

Saccharomyces cerevisiae [7] = test: checkerboard drug interaction (FICI, MICc);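 for all read-outs here: simplified diagonal checkerboard screen pairing antifungals with FPPS inhibitors, FICI calculated under the Loewe additivity model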; assay type: cell-based; design: INH MICc / INH MICc (ITR:INH) / INH MICc (KET:INH) / INH MICc (FLC:INH): unit not given beside the values; settings: S. cerevisiae; for INH FD (MIC-MICc fold decrease): fold decrease of inhibitor MIC
Trichophyton rubrum [8] = test: checkerboard drug interaction (FICI, MICc);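 note: simplified diagonal checkerboard screen pairing azole antifungals with FPPS inhibitors, FICI calculated under the Loewe additivity model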; assay type: cell-based; settings: T. rubrum
Protocol: as §2

Candida albicans [9] = test: checkerboard drug interaction (FICI, MICc);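 for all read-outs here: antifungal plus FPPS inhibitor combinations on Candida albicans tested by a simplified diagonal checkerboard screen, with FICI calculated under the Loewe additivity model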; assay type: cell-based; settings: C. albicans; for INH FD (MIC-MICc fold decrease): fold decrease of inhibitor MIC
Protocol: as §2

Cryptococcus neoformans [10] = test: checkerboard drug interaction (FICI, MICc);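 for all read-outs here: antifungal plus FPPS inhibitor pairs tested against Cryptococcus neoformans by simplified diagonal checkerboard screening, FICI computed under the Loewe additivity model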; assay type: cell-based; settings: C. neoformans; for INH FD (MIC-MICc fold decrease): fold decrease of inhibitor MIC
Protocol: as §2

Saccharomyces cerevisiae [11] = test: MIC/MFC broth microdilution (CLSI); assay type: cell-based; settings: Saccharomyces cerevisiae S288c
Protocol: as §1

eight fungal species [12] = test: checkerboard interaction with azoles, summary across the eight species; assay type: cell-based; settings: geometric mean MIC in combination with azoles
Excerpt: Synergy between lipophilic FPPS inhibitors and azole antifungals was investigated by determining the fractional inhibitory concentration index (FICI) (Fig. 2; Table S1 Fig. S1) ([17]). […]. Derivatives PLA9 and 11, and PDA9, 11, and 12 antagonized azoles in C. albicans, C. neoformans, and C. deuterogattii, yet were largely synergistic in C. glabrata and S. cerevisiae. […].

Candida glabrata [13] = test: MIC/MFC broth microdilution (CLSI); settings: Nakaseomyces glabratus, CBS138;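 note: broth microdilution following CLSI M27-Ed4, MFC taken as the lowest drug level yielding no growth once MIC wells were subcultured on SDA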
Protocol: as §1

Aspergillus fumigatus [14] = test: MIC/MFC broth microdilution (CLSI); settings: ATCC204305
Protocol: as §1

eight fungal species [15] = test: MIC/MFC summary across the eight fungal species of Table 1; assay type: cell-based
Protocol: The antifungal activity of these compounds was evaluated according to CLSI guidelines ([16]).

Aspergillus fumigatus [16] = test: checkerboard drug interaction (FICI, MICc);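 for all read-outs here: simplified diagonal checkerboard screen pairing antifungals with FPPS inhibitors against Aspergillus fumigatus, with FICI calculated under the Loewe additivity model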; assay type: cell-based; settings: A. fumigatus; for INH FD (MIC-MICc fold decrease): fold decrease of inhibitor MIC
Protocol: as §2

Candida albicans [17] = test: MIC/MFC broth microdilution (CLSI); assay type: cell-based; settings: Candida albicans SC5314
Protocol: as §1

Trichophyton rubrum [18] = test: MIC/MFC broth microdilution (CLSI); settings: Trichophyton rubrum
Protocol: as §1

[19] = Fractional Inhibitory Concentration Index, fluconazole + inhibitor
[20] = Fractional Inhibitory Concentration Index, itraconazole + inhibitor
[21] = Fractional Inhibitory Concentration Index, ketoconazole + inhibitor
[22] = MIC of the inhibitor in combination with fluconazole
[23] = MIC of the inhibitor in combination with itraconazole
[24] = MIC of the inhibitor in combination with ketoconazole
[25] = MIC-MICc fold decrease of fluconazole, negative = increase
[26] = MIC-MICc fold decrease of itraconazole, negative = increase
[27] = MIC-MICc fold decrease of ketoconazole, negative = increase
[28] = MIC-MICc fold decrease of the inhibitor, with fluconazole
[29] = MIC-MICc fold decrease of the inhibitor, with itraconazole
[30] = MIC-MICc fold decrease of the inhibitor, with ketoconazole
[31] = FLC:INH combination, MIC of the inhibitor in combination with FLC
[32] = FLC:INH combination, fold decrease of FLC MIC
[33] = ITR:INH combination, MIC of the inhibitor in combination with ITR
[34] = ITR:INH combination, fold decrease of ITR MIC
[35] = KET:INH combination, MIC of the inhibitor in combination with KET
[36] = KET:INH combination, fold decrease of KET MIC
[37] = FLC:INH combination, MIC of FLC in combination with the inhibitor
[38] = ITR:INH combination, MIC of ITR in combination with the inhibitor
[39] = KET:INH combination, MIC of KET in combination with the inhibitor

## CCCCCCCCCN1CCC[C@H]1C(=O)N[C@@H](CC(=O)OC)C(=O)OC [dmPLA9]
Cryptococcus neoformans [1]
  MFC: > 128 µg/mL
  MIC: 128 µg/mL (≈ 333 µM)
HEK-293T cells; HEK-293T cells, read-out: IC50
  IC50: 41.4 µg/mL (≈ 108 µM)
HEK-293T cells; read-out: HEK IC50
  IC50: 41.4 µg/mL (≈ 108 µM)
Aspergillus flavus [2]; [19]
  FICI (FLC:INH): 1.5
Aspergillus flavus [2]; [20]
  FICI (ITR:INH): 2
Aspergillus flavus [2]; [21]
  FICI (KET:INH): 1
Aspergillus flavus [2]; [22]
  INH MICc (FLC:INH): 128
Aspergillus flavus [2]; [23]
  INH MICc (ITR:INH): 256
Aspergillus flavus [2]; [24]
  INH MICc (KET:INH): 128
Aspergillus flavus [2]; [25]
  FLC FD (FLC:INH): 1
Aspergillus flavus [2]; [26]
  ITR FD (ITR:INH): 1
Aspergillus flavus [2]; [27]
  KET FD (KET:INH): 2
Aspergillus flavus [2]; [28]
  INH FD (FLC:INH): 2
Aspergillus flavus [2]; [29]
  INH FD (ITR:INH): 1
Aspergillus flavus [2]; [30]
  INH FD (KET:INH): 2
Aspergillus flavus [3]
  MFC: > 128 µg/mL
  MIC: > 128 µg/mL
[4]
  MFC: > 128 µg/mL
  MIC: 128 µg/mL (≈ 333 µM)
Candida glabrata [5]; FLC:INH combination
  FICI: ≥4
  INH FD (MIC-MICc fold decrease): 4
Candida glabrata [5]; [31]
  INH MICc: 64
Candida glabrata [5]; [32]
  FLC FD (MIC-MICc fold decrease): -4
Candida glabrata [5]; ITR:INH combination
  FICI: 1.5
  INH FD (MIC-MICc fold decrease): 32
Candida glabrata [5]; [33]
  INH MICc: 8
Candida glabrata [5]; [34]
  ITR FD (MIC-MICc fold decrease): 1
Candida glabrata [5]; KET:INH combination
  FICI: 1.5
  INH FD (MIC-MICc fold decrease): 32
Candida glabrata [5]; [35]
  INH MICc: 8
Candida glabrata [5]; [36]
  KET FD (MIC-MICc fold decrease): 1
[6]; FLC:INH combination
  FICI: 3
  INH FD (MIC-MICc fold decrease): 1
[6]; [31]
  INH MICc: 128
[6]; [32]
  FLC FD (MIC-MICc fold decrease): -2
[6]; ITR:INH combination
  FICI: ≥4
  INH FD (MIC-MICc fold decrease): -2
[6]; [33]
  INH MICc: 256
[6]; [34]
  ITR FD (MIC-MICc fold decrease): -4
[6]; KET:INH combination
  FICI: 1.5
  INH FD (MIC-MICc fold decrease): 1
[6]; [35]
  INH MICc: 128
[6]; [36]
  KET FD (MIC-MICc fold decrease): 2
Saccharomyces cerevisiae [7]; FLC:INH combination
  FICI: 2.5
  INH FD (MIC-MICc fold decrease): 2
Saccharomyces cerevisiae [7]; [37]
  FLC MICc: 8
Saccharomyces cerevisiae [7]; [31]
  INH MICc: 16
Saccharomyces cerevisiae [7]; [32]
  FLC FD (MIC-MICc fold decrease): -2
Saccharomyces cerevisiae [7]; ITR:INH combination
  FICI: 3
  INH FD (MIC-MICc fold decrease): 1
Saccharomyces cerevisiae [7]; [38]
  ITR MICc: 0.5
Saccharomyces cerevisiae [7]; [33]
  INH MICc: 32
Saccharomyces cerevisiae [7]; [34]
  ITR FD (MIC-MICc fold decrease): -2
Saccharomyces cerevisiae [7]; KET:INH combination
  FICI: 1.06
  INH FD (MIC-MICc fold decrease): 16
Saccharomyces cerevisiae [7]; [39]
  KET MICc: 2
Saccharomyces cerevisiae [7]; [35]
  INH MICc: 2
Saccharomyces cerevisiae [7]; [36]
  KET FD (MIC-MICc fold decrease): 1
Trichophyton rubrum [8]; [19]
  FICI (FLC:INH): ≥4
Trichophyton rubrum [8]; [20]
  FICI (ITR:INH): 1.5
Trichophyton rubrum [8]; [21]
  FICI (KET:INH): 2
Trichophyton rubrum [8]; [22]
  INH MICc (FLC:INH): 256
Trichophyton rubrum [8]; [23]
  INH MICc (ITR:INH): 128
Trichophyton rubrum [8]; [24]
  INH MICc (KET:INH): 128
Trichophyton rubrum [8]; [25]
  FLC FD (FLC:INH): -2
Trichophyton rubrum [8]; [26]
  ITR FD (ITR:INH): 2
Trichophyton rubrum [8]; [27]
  KET FD (KET:INH): 1
Trichophyton rubrum [8]; [28]
  INH FD (FLC:INH): -2
Trichophyton rubrum [8]; [29]
  INH FD (ITR:INH): 1
Trichophyton rubrum [8]; [30]
  INH FD (KET:INH): 1
Candida albicans [9]; FLC:INH combination
  FICI: 2.13
  INH FD (MIC-MICc fold decrease): 8
Candida albicans [9]; [31]
  INH MICc: 16
Candida albicans [9]; [32]
  FLC FD (MIC-MICc fold decrease): -2
Candida albicans [9]; ITR:INH combination
  FICI: 2.13
  INH FD (MIC-MICc fold decrease): 8
Candida albicans [9]; [33]
  INH MICc: 16
Candida albicans [9]; [34]
  ITR FD (MIC-MICc fold decrease): -2
Candida albicans [9]; KET:INH combination
  FICI: 2.13
  INH FD (MIC-MICc fold decrease): 8
Candida albicans [9]; [35]
  INH MICc: 16
Candida albicans [9]; [36]
  KET FD (MIC-MICc fold decrease): -2
Cryptococcus neoformans [10]; FLC:INH combination
  FICI: ≥4
  INH FD (MIC-MICc fold decrease): -2
Cryptococcus neoformans [10]; [31]
  INH MICc: 128
Cryptococcus neoformans [10]; [32]
  FLC FD (MIC-MICc fold decrease): -4
Cryptococcus neoformans [10]; ITR:INH combination
  FICI: ≥4
  INH FD (MIC-MICc fold decrease): -2
Cryptococcus neoformans [10]; [33]
  INH MICc: 128
Cryptococcus neoformans [10]; [34]
  ITR FD (MIC-MICc fold decrease): -4
Cryptococcus neoformans [10]; KET:INH combination
  FICI: 3
  INH FD (MIC-MICc fold decrease): 1
Cryptococcus neoformans [10]; [35]
  INH MICc: 64
Cryptococcus neoformans [10]; [36]
  KET FD (MIC-MICc fold decrease): -2
Saccharomyces cerevisiae [11]
  MFC: 32 µg/mL (≈ 83.2 µM)
  MIC: 32 µg/mL (≈ 83.2 µM)
Eight fungal species [12]
  GM fungal MICc: 52.3
Candida glabrata [13]
  MFC: > 128 µg/mL
  MIC: 128 µg/mL (≈ 333 µM)
Aspergillus fumigatus [14]
  MFC: > 128 µg/mL
  MIC: 128 µg/mL (≈ 333 µM)
Eight fungal species [15]; across eight species, read-out: Geometric mean MFC
  MFC: 197 µg/mL (≈ 513 µM)
Eight fungal species [15]; geometric mean across eight species, read-out: GM fungal MIC
  MIC: 128 µg/mL (≈ 333 µM)
Eight fungal species [15]; read-out: Geometric mean MIC
  MIC: 128 µg/mL (≈ 333 µM)
Aspergillus fumigatus [16]; FLC:INH combination
  FICI: 3
  INH FD (MIC-MICc fold decrease): -2
Aspergillus fumigatus [16]; [37]
  FLC MICc: 128
Aspergillus fumigatus [16]; [31]
  INH MICc: 256
Aspergillus fumigatus [16]; [32]
  FLC FD (MIC-MICc fold decrease): 1
Aspergillus fumigatus [16]; ITR:INH combination
  FICI: 1.03
  INH FD (MIC-MICc fold decrease): 32
Aspergillus fumigatus [16]; [38]
  ITR MICc: 0.125
Aspergillus fumigatus [16]; [33]
  INH MICc: 4
Aspergillus fumigatus [16]; [34]
  ITR FD (MIC-MICc fold decrease): 1
Aspergillus fumigatus [16]; KET:INH combination
  FICI: 2
  INH FD (MIC-MICc fold decrease): 1
Aspergillus fumigatus [16]; [39]
  KET MICc: 4
Aspergillus fumigatus [16]; [35]
  INH MICc: 128
Aspergillus fumigatus [16]; [36]
  KET FD (MIC-MICc fold decrease): 1
Candida albicans [17]
  MFC: > 128 µg/mL
  MIC: > 128 µg/mL
Trichophyton rubrum [18]
  MFC: > 128 µg/mL
  MIC: 128 µg/mL (≈ 333 µM)
